# According to patent US20220249435A1, “Applications of Butyrolactone-I in Preparing Medicine for Preventing Neuroinflammation and/or Memory and Cognitive Disorders” (priority 2021, published 2022):
# Legend:
# Type in all cases: in vivo
# zebrafish = test: T maze memory test in AlCl3-injected zebrafish
# Protocol: Adult wild AB zebrafish (male: female ratio is 50%: 50%) with good growth of about 6-8 months are acclimated in a 50 L water tank for 2 weeks, the temperature is 25±2° C., the light-dark cycle is 14 hours: 10 hours, and Artemia larvae are fed at 9 am and 2 pm respectively.
# (§1) 75 zebrafish (3.0±0.4 cm) are randomly classified into control group, AlCl3 model group and 3 experimental groups with 15 zebrafish in each group, zebrafish in the experimental group are fed with food with butyrolactone-I content of 25 mg/kg, 50 mg/kg and 100 mg/kg for 20 days. zebrafish in control group and model group are fed the same amount of normal food respectively. 20 days later, after anesthesia, zebrafish in model group and experimental group are injected with AlCl3 solution (4.2 mg/mL, 5μL, pH=5.0±0.2) intraperitoneally, while zebrafish in the control group are injected with the same amount of normal saline. Memory test is performed in T maze 24 hours after injection.
# 4 days before intraperitoneal injection, 6 fish are randomly selected from each group, and each day, they are trained separately in T maze for 5 minutes to find the eutrophic EC area. […] After 4 days of training, on the 5th day (24 hours after intraperitoneal injection), the behavior of the trained fish is tested in T maze. If the fish enters EC area and stays for more than 30 s, a valid incubation period is recorded. […] The behavioral test is conducted between 10 am and 1 pm. The Microsoft LifeCam Studio 1080p HD camera and powersoft software (Powersoft Co., Ltd., Hong Kong, China) are used to record videos. Supersys software is used to analyze the latent time (s), average swimming speed (cm/s) and the times of entering the EC zone for the first time.
# GSH = GSH level in brain tissue of zebrafish; details: food with 25, 50, 100 mg/kg for 20 days; AlCl3 intraperitoneally; brain supernatant; FIG. 3A
# Protocol: as §1
# (§2) 24 hours after the behavior test, the fish are euthanized, and every five fish in each group is a sample. The brain, surrounding tissues and intestines are collected and stored in a refrigerator at −80° C. All samples (except intestinal tract) are homogenized in phosphate buffer solution for further analysis. Centrifuging is conducted at 4° C. for 15 min at 1500 r/min, and the supernatant is collected. The changes of GSH level and AChE activity of tissue biomarkers are detected by using brain supernatant of zebrafish. […] According to OD value, the regression equation of IL-1β and TNF-α standard curves is calculated, and the logistic curve (4 parameters each) is used as a fitting model. […]
# AChE = AChE activity in brain tissue of zebrafish; details: food with 25, 50, 100 mg/kg for 20 days; AlCl3 intraperitoneally; brain supernatant; FIG. 3B
# Protocol: as §1, §2
# IL-1β = test: Level of inflammatory factor IL-1β in brain and peripheral tissues of zebrafish
# Protocol: as §1
# (§3) 24 hours after the behavior test, the fish are euthanized, and every five fish in each group is a sample. The brain, surrounding tissues and intestines are collected and stored in a refrigerator at −80° C. All samples (except intestinal tract) are homogenized in phosphate buffer solution for further analysis. Centrifuging is conducted at 4° C. for 15 min at 1500 r/min, and the supernatant is collected. The changes of GSH level and AChE activity of tissue biomarkers are detected by using brain supernatant of zebrafish. In addition, brain samples and supernatant of peripheral tissues of zebrafish are used to determine the levels of IL-1β and TNF-α. The results are expressed by the activity of AChE per gram of protein and the amount of glutathione per gram of protein. According to OD value, the regression equation of IL-1β and TNF-α standard curves is calculated, and the logistic curve (4 parameters each) is used as a fitting model.
# Graphpad Prism 8.0 is used for mapping, and One-way ANOVA and Dunnett's post hoc test are used to evaluate the differences between model group and control group, experimental group and model group.
# TNF-α = test: Level of inflammatory factor TNF-α in brain tissues of zebrafish; details: AlCl3 model, FIGS. 3E-3F
# Protocol: as §1, §2
# [1] = system: zebrafish intestinal flora; test: Intestinal flora of zebrafish by 16S V3-V4 sequencing
# Protocol: as §1, §3
# Genomic DNA is extracted from 15 intestinal samples by proteinase K cleavage method, and sent to TinyGene Bio-Tech (ShangHai) Co., Ltd. for sequencing. The selected target gene is 16S V3-V4. According to the requirements of illumina high-throughput sequencing, two-way sequencing is carried out, and the target region and the fusion primer with “5′ linker-barcode-sequencing primer-specific primer-3′” are designed. The fusion primer comprises the following primers: […]
# The library is constructed by a two-step PCR amplification method. First, specific primers (hereinafter described as inner primers) are used to amplify the target fragments, and then gel recovery is carried out on the target fragments. Then, the recovered products are used as templates for secondary PCR amplification (hereinafter described as outer primers for amplification). The purpose of amplification is to add the linker, sequencing primer and barcode needed by illumina platform sequencing to both ends of the target fragment.
# AxyPrepDNA gel recovery kit is used for recovery, FTC-3000™ real-time PCR is used for real-time fluorescence quantification, and then Illumina high-throughput sequencing and bioinformatics analysis are performed. The length of the sequence is 450 bp, and the sequencing result is the original data, and quality of the sequence is evaluated and optimized. Trimmomatic is used for sequence filtering and FLASH for jointing. Then ambiguity, homology and some chimeras generated in PCR are screened by motherur V. 1.39.5, and the optimized sequence for subsequent clustering OTU (operational taxonomic unit) and species information analysis is obtained. Using the software USEARCH, the jointed sequences are clustered into OTU (at 97% similarity level) for later analysis.
# VENN diagram may be used to count the number of common and unique OTU in multiple samples, and may intuitively show the similarity and overlap of OTU numbers of environmental samples. Usually the OTU sample table with a similar level of 97% is selected for analysis.
# Alpha diversity analysis reflects the richness and diversity of communities in the sample, using motheru (http://www.mothur.org/wiki/Schloss SOP#Alpha diversity) to calculate shannon, simpson, chao and ace indices, and using R (3.4.1) language tool to make charts. […]
# [2] = phylum level, oral, AlCl3 model
structure (smiles),measurement,setting,value
COC(=O)[C@@]1(Cc2ccc(O)c(CC=C(C)C)c2)OC(=O)C(O)=C1c1ccc(O)cc1 [butyrolactone-I],latent time for zebrafish to find the EC zone,"zebrafish; food with 25, 50, 100 mg/kg butyrolactone-I for 20 days, AlCl3 intraperitoneally, T maze 24 hours after injection, FIG. 1A",shorten the latent time
same,average swimming speed of zebrafish,"zebrafish; food with 25, 50, 100 mg/kg for 20 days, AlCl3 intraperitoneally, T maze, FIG. 1B",increase the average swimming speed
same,number of times that zebrafish enter the eutrophic EC zone,"zebrafish; food with 25, 50, 100 mg/kg for 20 days, AlCl3 intraperitoneally, T maze, FIG. 1C",add the number of times
same,lingering time of zebrafish in EC area,"zebrafish; food with 25, 50, 100 mg/kg for 20 days, AlCl3 intraperitoneally, T maze, FIGS. 2A-2E",prolong the lingering time
same,memory and cognitive disorder of zebrafish caused by aluminum trichloride,zebrafish; overall conclusion of T maze test,obviously improve
same,GSH level in brain tissue of zebrafish,GSH,increase GSH level in brain tissue of zebrafish in a dose-dependent manner
same,AChE activity in brain tissue of zebrafish,AChE,inhibit AChE activity
same,level of inflammatory factor IL-1β in the brain of zebrafish,"IL-1β; brain, AlCl3 model, FIG. 3C",reduce the level
same,nerve inflammation of zebrafish caused by aluminum trichloride,IL-1β; overall conclusion of biochemical indexes,obviously improve
same,level of inflammatory factor IL-1β in peripheral tissues of zebrafish,"IL-1β; peripheral tissues, AlCl3 model, FIG. 3D",reduce the level
same,level of inflammatory factor TNF-α in brain tissues of zebrafish,TNF-α,reduce the level
same,abundance of Alpinimonas,"[1]; genus level, oral, AlCl3 model",down-regulate
same,abundance of Bacillus,"[1]; genus level, oral, AlCl3 model",up-regulate
same,abundance of Bosea,"[1]; genus level, oral, AlCl3 model",down-regulate
same,abundance of Cetobacterium,"[1]; genus level, oral, AlCl3 model",down-regulate
same,abundance of Mycobacterium,"[1]; genus level, oral, AlCl3 model",down-regulate
same,abundance of Phreatobacter,"[1]; genus level, oral, AlCl3 model",down-regulate
same,abundance of Singulisphaera,"[1]; genus level, oral, AlCl3 model",down-regulate
same,disturbance of zebrafish intestinal flora caused by aluminum trichloride,[1]; overall conclusion,regulate the disturbance
same,abundance of Chlamydiae,[1]; [2],down-regulate
same,abundance of Chloroflexi,[1]; [2],down-regulate
same,abundance of Fusobacterium,[1]; [2],down-regulate
same,abundance of Planctomycetes,[1]; [2],down-regulate
same,abundance of Phylum Firmicutes,"[1]; phylum level, oral, AlCl3 model, FIGS. 4A-4B",up-regulate
